Where “and” joins values, the source holds several entries; their conditions need not be identical. Equal entries are not always repeated. Where two headings read alike, the source gives them in different places. Blank lines part the entries; values can stand above or below the compound they belong to.
What was measured:
ER/IL-6 = test: Endothelial Cell ER/IL-6 Assay, IL-6 promoter luciferase (Table 2); assay type: cell-based, human; conditions: ERα infected HAECT-1 cells, IL-1β; for Emax: read-out: IL6 luc % Efficacy; for IC50: read-out: IL6 luc IC50
Procedure: T-175 flasks of 100% confluent HAECT-1 cells (immortalized human aortic endothelial cells) were washed with 8 ml of HBSS (HEPES buffered saline solution) and infected for fours hours with 6 ml of a 1:10 dilution of Ad5-wt-hERα virus (an adenovirus transfection vector that mediates CMV promoter driven expression of human ERα) in phenol red free Endothelial Cell Basal medium (Clonetics, San Diego, Calif., Catalog # CC-3129) containing 0.25% bovine serum albumin (EDM-BSA). After four hours, cells were washed with EDM-BSA and incubated overnight in the same medium. Following overnight incubation, cells were washed with EDM-BSA and infected for 2 hours with 6 ml of a 1:10 dilution of Ad5-3x(NFκB).Luc virus (Adenovirus luciferase expression vector driven by three repeats of the MHC NFκb sites 5′ to the thymidine kinase promoter) in EDM-BSA. After two hours, cells were washed and incubated at 34° C. for one hour. Cells were then washed, trypsinized, counted, and resuspended in 95% FBS/5% dimethylsulfoxide at a concentration of […], frozen as 1 or 5 ml aliquots in cryo-vials and stored at −150° C. Control (no ER infection) cells were processed as above without Ad5-wt-hERα virus infection.
ERα infected HAECT-1 cells or control cells were thawed, diluted 42× in warm EBM-BSA, plated into 96-well plates at 0.1 ml/well and incubated for 4 hours at 34° C. Test compounds were added to the cells at 2× stocks in EBM-BSA containing 2 ng/ml IL-1β Ad6-IL-6(1250 bp).Luc virus and plates were returned to the incubator (34° C.). After […], cells were lysed with 50 μl of Promega Cell Culture Lysis reagenet for about 5 minutes at room temperature on a shaker. After lysing, 15 μl of lysate is transferred to luminometer plates for luciferase determination. Luciferase activity is evaluated using a Perkin Elmer Victor2 1420 multilabel counter. Creatine kinase was determined from the rate of increase in A340 following addition of 100 μl of CK assay reagent (Sigma catalog no. 47-10) to the remainder of the cell lysate.
For IC50 and EC50 calculations, mean IL-6, luciferase or CK values versus log10 of the compound concentration were fitted to a four parameter logistic equation. The IC50/EC50 value, ‘Hill slope,’ upper and lower limits of the curve were iteratively estimated.

Structure (SMILES): COc1ccccc1[C@H](c1cccc2ccccc12)[C@@](C)(C#N)C(=O)N1CC=C(c2ccc(Cl)cc2)CC1
melting point: 118 to 122 °C

Structure (SMILES): C[C@@](C#N)(C(=O)O)[C@H](c1ccccc1C(F)(F)F)c1cccc2ccccc12 (racemic)
melting point: 220 °C (dec.)

Structure (SMILES): CC(C)(C)OC(=O)C(C#N)C(c1ccccc1OC(F)(F)F)c1cccc2ccccc12 (stereo not shown)
melting point: 115 to 118 °C

Structure (SMILES): COc1ccccc1[C@@H](c1cccc2ccccc12)[C@@](C#N)(Cc1cccnc1)C(=O)OC(C)(C)C [Example 179, tert-Butyl (RR,SS)-2-cyano-3-(2-methoxyphenyl)-3-(1-naphthyl)-2-(pyridin-3-ylmethyl)propanoate]
IL6 luc % Efficacy (ER/IL-6): 128%
IC50 (ER/IL-6): 151 nM

Structure (SMILES): COc1ccccc1[C@H](c1cccc2ccccc12)[C@@](C)(C#N)C(=O)N1CCN(C(=O)c2ccco2)CC1
melting point: 193 °C

Structure (SMILES): COc1ccccc1[C@H](c1cccc2ccccc12)[C@@](C)(C#N)C(=O)N1CCN(c2ccc(Cl)cc2)CC1
melting point: 178 to 180 °C

Structure (SMILES): Cc1cccc(C)c1C(c1cccc2ccccc12)C(C#N)C(=O)OC(C)(C)C (stereo not shown)
melting point: 124 to 128 °C

Structure (SMILES): CCOC(=O)C(C)(C#N)C(c1cccc2ccccc12)c1cccc2ccccc12 (stereo not shown)
melting point: 186 to 188 °C

Structure (SMILES): CC(C)(C)OC(=O)[C@@](C)(C#N)[C@H](c1ccccc1OC(F)(F)F)c1cccc2ccccc12 (racemic)
melting point: 150 to 153 °C

Structure (SMILES): COc1ccccc1[C@H](c1cccc2ccccc12)[C@@](C)(C#N)C(=O)N1CCN(CC(=O)N2CCOCC2)CC1
melting point: 201 °C

Structure (SMILES): COc1ccccc1[C@H](c1cccc2ccccc12)[C@@](C)(C#N)C(=O)N1CCN(c2cccc(C)c2)CC1
melting point: 104 to 105 °C

Structure (SMILES): COCCOC[C@@](C#N)(C(=O)N1CCC(c2cccc(C(F)(F)F)c2)CC1)[C@@H](c1ccccc1OC)c1cccc2ccccc12 [Example 168, (RR,SS)-2-[(2-Methoxyethoxy)methyl]-3-(2-methoxyphenyl)-3-(1-naphthyl)-2-({4-[3-(trifluoromethyl)phenyl]piperidin-1-yl}carbonyl)propanenitrile]
IL6 luc % Efficacy (ER/IL-6): 68%
IC50 (ER/IL-6): 37 nM

Structure (SMILES): COc1ccccc1[C@H](c1cccc2ccccc12)[C@@](C)(C#N)C(=O)N1CCC(O)(c2ccc(Br)cc2)CC1
melting point: 206 to 208 °C

Structure (SMILES): COCC(C#N)(C(=O)NC(C)(C)C)C(c1ccccc1OC)c1cccc2ccccc12 (stereo not drawn) [Example 180, (RR,SS)-N-(tert-butyl)-2-cyano-2-(methoxymethyl)-3-(2-methoxyphenyl)-3-(1-naphthyl)propanamide]
IL6 luc % Efficacy (ER/IL-6): 119%
IC50 (ER/IL-6): 200 nM

Structure (SMILES): COCCOC[C@@](C#N)(C(=O)NCC(C)(C)C)[C@@H](c1ccccc1OC)c1cccc2ccccc12 [Example 170, (RR,SS)-2-Cyano-N-(2,2-dimethylpropyl)-2-[(2-methoxyethoxy)methyl]-3-(2-methoxyphenyl)-3-(1-naphthyl)propanamide]
IL6 luc % Efficacy (ER/IL-6): 89%
IC50 (ER/IL-6): 577 nM

Structure (SMILES): COc1ccccc1[C@H](c1cccc2ccccc12)[C@@](C)(C#N)C(=O)N1CCN(c2ccccc2Cl)CC1
melting point: 145 to 147 °C

Structure (SMILES): COc1ccccc1[C@H](c1cccc2ccccc12)[C@@](C)(C#N)C(=O)N1CCN(CCN2CCOCC2)CC1
melting point: 102 to 103 °C

Structure (SMILES): COc1ccccc1[C@@H](c1cccc2ccccc12)[C@@](C#N)(Cc1cccnc1)C(=O)NCC(C)(C)C [Example 176, (RR,SS)-2-cyano-N-(2,2-dimethylpropyl)-3-(2-methoxyphenyl)-3-(1-naphthyl)-2-(pyridin-3-ylmethyl)propanamide]
IL6 luc % Efficacy (ER/IL-6): 71%
IC50 (ER/IL-6): 413 nM

Structure (SMILES): COC[C@](C#N)(C(=O)N1CCN(C2CCCCC2)CC1)[C@H](c1ccccc1OC)c1cccc2ccccc12 [Example 221, (2S,3S)-3-(4-cyclohexylpiperazin-1-yl)-2-(methoxymethyl)-2-[(2-methoxyphenyl)(1-naphthyl)methyl]-3-oxopropanenitrile]
IL6 luc % Efficacy (ER/IL-6): 159% and 245% and 174%

More lines, main results first:

melting point: 174 to 176 °C
Structure (SMILES): COc1ccccc1[C@H](c1cccc2ccccc12)[C@@](C)(C#N)C(=O)N1CCN(c2cccc3[nH]ccc23)CC1

IC50 (ER/IL-6; Homo sapiens, HAECT1): 324 nM
Structure (SMILES): COc1ccccc1[C@H](c1cccc2ccccc12)[C@@](C)(C#N)C(=O)N1CCC(O)(c2cccc(C(F)(F)F)c2)CC1 [Example 140, (2S)-3-{4-hydroxy-4-[3-(trifluoromethyl)phenyl]piperidin-1-yl}-2-[(S)-(2-methoxyphenyl)(1-naphthyl)methyl]-2-methyl-3-oxopropanenitrile]
Emax (ER/IL-6; Homo sapiens, HAECT1): 125%

IC50 (ER/IL-6; Homo sapiens, HAECT1): 273 nM
Structure (SMILES): COCCOC[C@@](C#N)(C(=O)OC)[C@@H](c1ccccc1OC)c1cccc2ccccc12 [Example 159, Methyl (2R,3R)-2-cyano-2-[(2-methoxyethoxy)methyl]-3-(2-methoxyphenyl)-3-(1-naphthyl)propanoate]
Emax (ER/IL-6; Homo sapiens, HAECT1): 95%

IC50 (ER/IL-6; Homo sapiens, HAECT1): 12 nM
Structure (SMILES): COC(=O)[C@@](C#N)(CCN1CCOCC1)[C@H](c1ccccc1OC)c1cccc2ccccc12 (relative stereo) [Example 147, Methyl (2S*)-2-cyano-2-[(S*)-(2-methoxyphenyl)(1-naphthyl)methyl]-4-morpholin-4-ylbutanoate]

melting point: 156 to 157 °C
Structure (SMILES): CC(C)(C)OC(=O)C(C#N)C(c1cccc2ccccc12)c1cccc2ccccc12 (stereo not shown)

melting point: 174 to 176 °C
Structure (SMILES): COc1ccccc1[C@H](c1cccc2ccccc12)[C@@](C)(C#N)C(=O)N1CCN(c2cccc(Cl)c2)CC1

melting point: 181 to 183 °C
Structure (SMILES): COc1ccccc1[C@H](c1cccc2ccccc12)[C@@](C)(C#N)C(=O)N1CCN(c2ccc(C)c(C)c2)CC1

melting point: 194 to 195 °C
Structure (SMILES): COc1ccccc1[C@H](c1cccc2ccccc12)[C@@](C)(C#N)C(=O)N1CCN(c2cccc(C)c2C)CC1

IC50 (ER/IL-6; Homo sapiens, HAECT1): 33 nM
Structure (SMILES): COc1ccccc1[C@H](c1cccc2ccccc12)[C@@](C)(C#N)C(=O)N1CC=C(c2ccc(F)cc2)CC1 [Example 137, (2S)-3-[4-(4-fluorophenyl)-3,6-dihydropyridin-1(2H)-yl]-2-[(S)-(2-methoxyphenyl)(1-naphthyl)methyl]-2-methyl-3-oxopropanenitrile]
Emax (ER/IL-6; Homo sapiens, HAECT1): 163%

IC50 (ER/IL-6): 337 nM
Structure (SMILES): COCCOC[C@@](C#N)(C(=O)N1CCN(c2cnccn2)CC1)[C@@H](c1ccccc1OC)c1cccc2ccccc12 [Example 171, (RR,SS)-2-[(2-methoxyethoxy)methyl]-3-(2-methoxyphenyl)-3-(1-naphthyl)-2-[(4-pyrazin-2-ylpiperazin-1-yl)carbonyl]propanenitrile]
IL6 luc % Efficacy (ER/IL-6): 54%

IC50 (ER/IL-6): 1400 nM
Structure (SMILES): COC[C@@](C#N)(C(=O)N1CCN(CCN2CCOCC2)CC1)[C@@H](c1ccccc1OC)c1cccc2ccccc12 [Example 219, (RR,SS)-2-(methoxymethyl)-3-(2-methoxyphenyl)-2-{[4-(2-morpholin-4-ylethyl)piperazin-1-yl]carbonyl}-3-(1-naphthyl)propanenitrile]
IL6 luc % Efficacy (ER/IL-6): 74%

IC50 (ER/IL-6; Homo sapiens, HAECT1): 257 nM
Structure (SMILES): CCN(CC)CC[C@](C#N)(C(=O)OC)[C@H](c1ccccc1OC)c1cccc2ccccc12 (relative stereo) [Example 148, Methyl (2S*)-2-cyano-4-(diethylamino)-2-[(S*)-(2-methoxyphenyl)(1-naphthyl)methyl]butanoate]

IC50 (ER/IL-6; Homo sapiens, HAECT1): 32 nM
Structure (SMILES): COc1ccccc1C(c1cnc2ccccc2c1)C(C)(C#N)C(=O)N1CCC(c2cccc(C(F)(F)F)c2)CC1 (stereo not shown) [Example 164, 3-(2-Methoxyphenyl)-2-methyl-3-quinolin-3-yl-2-({4-[3-(trifluoromethyl)phenyl]piperidin-1-yl}carbonyl)propanenitrile]
Emax (ER/IL-6; Homo sapiens, HAECT1): 48%
